Source: patent publication US20260285850A1, “SUBSTITUTED OXAZOLIDINONES AND IMIDAZOLINONES AS HERBICIDES” (FMC CORPORATION, priority 2023, published 2026)

Experiments:
Type in all cases: in vivo
[1] = system: soybean (Glycine max); assay: Test A postemergence application, visual injury rating 0-100
Procedure, shortened: (§1)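 Grow plants in loam soil blended with sand. Apply formulated compound (non-phytotoxic solvent, surfactant) as a directed soil spray before emergence, or to plants at the one- to two-leaf stage after emergence. Hold in greenhouse 10 days, then rate injury visually versus untreated controls on a 0-100 scale.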

[2] = system: green foxtail (Setaria viridis); assay: as above
Procedure, shortened: as §1

[3] = system: kochia (Bassia scoparia); assay: as above
Procedure, shortened: as §1

[4] = system: palmer (palmer amaranth, palmer pigweed, Amaranthus palmeri); assay: as above
Procedure, shortened: as §1

[5] = system: blackgrass (Alopecurus myosuroides); assay: as above
Procedure, shortened: as §1

[6] = system: wheat (Triticum aestivum); assay: as above
Procedure, shortened: as §1

[7] = system: galium (catchweed bedstraw, Galium aparine); assay: as above
Procedure, shortened: as §1

[8] = system: barnyardgrass (Echinochloa crus-galli); assay: as above
Procedure, shortened: as §1

[9] = system: ryegrass, Italian (italian ryegrass, Lolium multiflorum); assay: as above
Procedure, shortened: as §1

[10] = system: ragweed (common ragweed, Ambrosia artemisiifolia); assay: as above
Procedure, shortened: as §1

[11] = system: oat, wild (wild oat, Avena fatua); assay: as above
Procedure, shortened: as §1

[12] = system: corn (Zea mays); assay: as above
Procedure, shortened: as §1

[13] = system: ducksalad (Heteranthera limosa); assay: Test B flooded paddy test, visual plant response rating 0-100; details: 250 g ai/ha, Flood, applied to paddy water, evaluated after 13 days
Procedure, shortened: (§2)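 Plants were grown to the 2-leaf stage, then pots were flooded to 3 cm above the soil and compound was applied directly to the paddy water, with that depth kept throughout.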

[14] = system: barnyardgrass (Echinochloa crusgalli); assay: as above; details: 250 g ai/ha, Flood, applied to paddy water, evaluated after 13 days
Procedure, shortened: as §2

[15] = system: rice (Oryza sativa); assay: as above; details: 250 g ai/ha, Flood, applied to paddy water, evaluated after 13 days
Procedure, shortened: as §2

[16] = system: sedge, umbrella (small-flower umbrella sedge, Cyperus difformis); assay: as above; details: 250 g ai/ha, Flood, applied to paddy water, evaluated after 13 days
Procedure, shortened: as §2

[17] = system: soybean (Glycine max); assay: Test A preemergence soil spray, visual injury rating 0-100; details: 10 days
Procedure, shortened: as §1

[18] = system: green foxtail (Setaria viridis); assay: as above; details: 10 days
Procedure, shortened: as §1

[19] = system: kochia (Bassia scoparia); assay: as above; details: 10 days
Procedure, shortened: as §1

[20] = system: palmer (palmer amaranth, palmer pigweed, Amaranthus palmeri); assay: as above; details: 10 days
Procedure, shortened: as §1

[21] = system: blackgrass (Alopecurus myosuroides); assay: as above; details: 10 days
Procedure, shortened: as §1

[22] = system: wheat (Triticum aestivum); assay: as above; details: 10 days
Procedure, shortened: as §1

[23] = system: barnyardgrass (Echinochloa crus-galli); assay: as above; details: 10 days
Procedure, shortened: as §1

[24] = system: ryegrass, Italian (italian ryegrass, Lolium multiflorum); assay: as above; details: 10 days
Procedure, shortened: as §1

[25] = system: ragweed (common ragweed, Ambrosia artemisiifolia); assay: as above; details: 10 days
Procedure, shortened: as §1

[26] = system: oat, wild (wild oat, Avena fatua); assay: as above; details: 10 days
Procedure, shortened: as §1

[27] = system: corn (Zea mays); assay: as above; details: 10 days
Procedure, shortened: as §1

[28] = 62 g ai/ha, postemergence, 10 days, 0 = no effect, 100 = complete control
[29] = Postemergence, 16 g ai/ha, greenhouse 10 days, 0 no effect, 100 complete control
[30] = 62 g ai/ha, 0 = no effect, 100 = complete control

Structure (SMILES): C=CC1(C(=O)NC2COC(C(=O)OC)C2)CN(c2cc(F)cc(F)c2)C(=O)O1 (centres unmarked) [Compound 170]
- Soybean plant response rating (0-100) [1, 28]: 30
- Soybean plant response rating (0 to 100 scale) [1, 29]: 0
- Foxtail, Green plant response rating (0-100) [2, 28]: 0
- Foxtail, Green plant response rating (0 to 100 scale) [2, 29]: 0
- Kochia plant response rating (0-100) [3, 28]: 0
- Kochia plant response rating (0 to 100 scale) [3, 29]: 0
- Pigweed, Palmer plant response rating (0-100) [4, 28]: 0
- Pigweed, Palmer plant response rating (0 to 100 scale) [4, 29]: 0
- Blackgrass plant response rating (0-100) [5, 28]: 0
- Blackgrass plant response rating (0 to 100 scale) [5, 29]: 0
- Wheat plant response rating (0-100) [6, 28]: 0
- Wheat plant response rating (0 to 100 scale) [6, 29]: 0
- Galium plant response rating (0-100) [7, 28]: 40
- Galium plant response rating (0 to 100 scale) [7, 29]: 0
- Barnyardgrass plant response rating (0-100) [8, 28]: 30
- Barnyardgrass plant response rating (0 to 100 scale) [8, 29]: 0
- Ryegrass, Italian plant response rating (0-100) [9, 28]: 0
- Ryegrass, Italian plant response rating (0 to 100 scale) [9, 29]: 0
- Ragweed plant response rating (0-100) [10, 28]: 0
- Ragweed plant response rating (0 to 100 scale) [10, 29]: 0
- Oat, Wild plant response rating (0-100) [11, 28]: 0
- Oat, Wild plant response rating (0 to 100 scale) [11, 29]: 0
- Corn plant response rating (0-100) [12, 28]: 0
- Corn plant response rating (0 to 100 scale) [12, 29]: 0
- Plant response rating, Ducksalad (0 to 100 scale, 0 is no effect and 100 is complete control) [13]: 0
- Plant response rating, Barnyardgrass (0 to 100 scale, 0 is no effect and 100 is complete control) [14]: 0
- Plant response rating, Rice (0 to 100 scale, 0 is no effect and 100 is complete control) [15]: 0
- Plant response rating, Sedge, Umbrella (0 to 100 scale, 0 is no effect and 100 is complete control) [16]: 0
- Soybean plant response rating ([17]; 16 g ai/ha, 0 to 100 scale): 0
- Soybean plant response rating (0-100) [17, 30]: 0
- Foxtail, Green plant response rating ([18]; 16 g ai/ha, 0 to 100 scale): 0
- Foxtail, Green plant response rating (0-100) [18, 30]: 0
- Kochia plant response rating ([19]; 16 g ai/ha, 0 to 100 scale): 0
- Kochia plant response rating (0-100) [19, 30]: 0
- Pigweed, Palmer plant response rating ([20]; 16 g ai/ha, 0 to 100 scale): 0
- Pigweed, Palmer plant response rating (0-100) [20, 30]: 0
- Blackgrass plant response rating ([21]; 16 g ai/ha, 0 to 100 scale): 0
- Blackgrass plant response rating (0-100) [21, 30]: 0
- Wheat plant response rating ([22]; 16 g ai/ha, 0 to 100 scale): 0
- Wheat plant response rating (0-100) [22, 30]: 0
- Barnyardgrass plant response rating ([23]; 16 g ai/ha, 0 to 100 scale): 0
- Barnyardgrass plant response rating (0-100) [23, 30]: 0
- Ryegrass, Italian plant response rating ([24]; 16 g ai/ha, 0 to 100 scale): 10
- Ryegrass, Italian plant response rating (0-100) [24, 30]: 20
- Ragweed plant response rating ([25]; 16 g ai/ha, 0 to 100 scale): 0
- Ragweed plant response rating (0-100) [25, 30]: 0
- Oat, Wild plant response rating ([26]; 16 g ai/ha, 0 to 100 scale): 0
- Oat, Wild plant response rating (0-100) [26, 30]: 0
- Corn plant response rating ([27]; 16 g ai/ha, 0 to 100 scale): 0
- Corn plant response rating (0-100) [27, 30]: 0
